Source: publication PMC8698377, “In Vitro Hepatic Assessment of Cineole and Its Derivatives in Common Brushtail Possums (Trichosurus vulpecula) and Rodents” (Biology, 2021)

Experiments:
UGT [1] = experiment: p-nitrophenol glucuronidation, mouse hepatic microsomes; assay type: in vitro ADME
Description: (§1) Microsomal preparation was as previously outlined. Individual livers were placed in beakers containing 1.15% KCl. All the procedures were carried out at 0–4 °C. The liver samples were minced and homogenised in buffer A (0.1 M Tris, 0.1 M potassium chloride, 1 mM EDTA, and 20 μM butylated hydroxytoluene, at pH = 7.4) using the Teflon-glass homogeniser (5–6 vertical passes). The samples were centrifuged for 20 min at 10,000× g. The supernatant was then transferred into another set of centrifuge tubes and spun for 60 min at 100,000× g. The pellet was resuspended in Buffer B (0.1 M potassium pyrophosphate, 1 mM EDTA, and 20 μM butylated hydroxytoluene, at pH = 7.4), homogenised and recentrifuged for 60 min at 100,000× g. Finally, the pellet was homogenised in 1–2 mL of Buffer C (10 mM Tris-HCl, 1 mM EDTA, and 4% glycerol (v/v)) and stored at […] until used. The protein concentration of the microsomes was determined using the Bicinchoninic acid (BCA) method.
(§2) The rate of p-nitrophenol glucuronidation was determined as previously reported. In short, the incubation mixture (500 µL in total) contained; 100 µL of 1 mg/mL microsomes, 50 µL of 1 M Tris-HCl (pH = 7.4), 20 µL of 0.25% (v/v) Triton-X 100, 50 µL of 50 mM MgCl2, 130 µL of double distilled water, 50 µL of 5 mM p-nitrophenol, 50 µL of the test compound, and 50 µL of uridine 5′-diphosphoglucuronic acid trisodium salt (UDPGA). The blank tubes had all components except UDPGA and microsomes; instead, 150 µL of 0.1 M phosphate buffer was added to equal the volume as the reaction mixture. The reaction mixture and the blank were incubated at 37 °C for 2 min. Then, 50 µL of 30 mM UDPGA was added to initiate the reaction which proceeded at 37 °C for 30 min (optimised incubation time). The reaction was stopped using 1 mL of 5% trichloroacetic acid (TCA). The tubes were centrifuged at 1800 g for 10 min and then 1 mL of supernatant was added to 250 µL of 2 M sodium hydroxide (NaOH). The absorbance was read at 405 nm. The sample reading was subtracted from the blank absorbance and divided by the extinction coefficient of p-nitrophenol ([…]) and the light path of the spectrophotometer (1 cm). The glucuronidation activities are expressed in µmol/mg/min and are the mean ± SEM of 3 independent experiments conducted in duplicate.

CYP3A [2] = experiment: CYP3A catalytic activity (erythromycin-N-demethylation), possum hepatic microsomes; assay type: in vitro ADME, possum (Trichosurus vulpecula); settings: for activity at 30 min, 12.5 µM / activity at 30 min, 25 µM: possum (Trichosurus vulpecula), liver microsomes, pH 7.4, probe erythromycin, read-out: CYP3A catalytic activity, % of Control
Description: as §1
(§3) CYP3A catalytic activity was determined using the erythromycin-N-demethylation activity assay as described previously. The reaction mixture (final volume of 1 mL and final protein concentration of 1 mg) contained 500 µL of microsomes in 0.1 M phosphate buffer (pH = 7.4), 400 µL of erythromycin buffer (0.45 mM), and 50 µL of the test compound was pre-warmed at 37 °C for 2 min. The reaction was initiated with 50 µL of 2.5 mM […] and incubated at 37 °C for 30 min (optimised incubation time). The reaction was stopped with the addition of 330 µL of 15% zinc sulphate. Tubes were vortexed and left for 5 min (at room temperature) and then 330 µL of saturated barium hydroxide was added. Tubes were further vortexed and left for 5 min (at room temperature). Tubes were then centrifuged at 1800 g for 10 min. To 830 µL of the supernatant, 330 µL of Nash reagent (30% (w/v) ammonium acetate, 0.4% (v/v) acetyl acetone) was added and further incubated at 60 °C for 30 min. The blank tube contained 330 µL of Nash reagent and 830 µL of Milli-Q-water. The tubes were centrifuged again at 1800× g for 10 min and the absorbance was read at 415 nm. Results presented are the mean ± SEM of 3 independent experiments conducted in duplicate.

CYP3A [3] = experiment: CYP3A catalytic activity (erythromycin-N-demethylation), mouse hepatic microsomes; assay type: in vitro ADME; settings: for activity at 30 min, 12.5 µM / activity at 30 min, 25 µM: liver microsomes, pH 7.4, probe erythromycin, read-out: CYP3A catalytic activity, % of Control
Description: as §1, §3

UGT [4] = experiment: p-nitrophenol glucuronidation, rat hepatic microsomes; assay type: in vitro ADME
Description: as §1, §2

UGT [5] = experiment: p-nitrophenol glucuronidation, possum hepatic microsomes; assay type: in vitro ADME, possum (Trichosurus vulpecula)
Description: as §1, §2

CYP3A [6] = experiment: CYP3A catalytic activity (erythromycin-N-demethylation), rat hepatic microsomes; assay type: in vitro ADME; settings: for activity at 30 min, 12.5 µM / activity at 30 min, 25 µM: liver microsomes, pH 7.4, probe erythromycin, read-out: CYP3A catalytic activity, % of Control
Description: as §1, §3

| SMILES | CYP3A catalytic activity (CYP3A [2]; 12.5 µM) | CYP3A catalytic activity (CYP3A [2]; 25 µM) | activity at 30 min, 12.5 µM (CYP3A [2]; 12.5 µM) | activity at 30 min, 25 µM (CYP3A [2]; 25 µM) | p-nitrophenol glucuronidation activity (UGT [1]; 12.5 µM) | p-nitrophenol glucuronidation, % of Control (UGT [1]; 12.5 µM) | p-nitrophenol glucuronidation activity (UGT [1]; 25 µM) | p-nitrophenol glucuronidation, % of Control (UGT [1]; 25 µM) | CYP3A catalytic activity (CYP3A [3]; 12.5 µM) | CYP3A catalytic activity (CYP3A [3]; 25 µM) | activity at 30 min, 12.5 µM (CYP3A [3]; 12.5 µM) | activity at 30 min, 25 µM (CYP3A [3]; 25 µM) | p-nitrophenol glucuronidation activity (UGT [4]; 12.5 µM) | p-nitrophenol glucuronidation, % of Control (UGT [4]; 12.5 µM) | p-nitrophenol glucuronidation activity (UGT [4]; 25 µM) | p-nitrophenol glucuronidation, % of Control (UGT [4]; 25 µM) | p-nitrophenol glucuronidation activity (UGT [5]; 12.5 µM) | p-nitrophenol glucuronidation, % of Control (UGT [5]; 12.5 µM) | p-nitrophenol glucuronidation activity (UGT [5]; 25 µM) | p-nitrophenol glucuronidation, % of Control (UGT [5]; 25 µM) | other results |
| --- | --- | --- | --- | --- | --- | --- | --- | --- | --- | --- | --- | --- | --- | --- | --- | --- | --- | --- | --- | --- | --- |
| OC(Cn1cncn1)(Cn1cncn1)c1ccc(F)cc1F [fluconazole, reference compound] |  |  |  |  |  |  |  |  |  |  |  |  |  |  |  |  |  |  |  |  | decrease of hepatic p-nitrophenol glucuronidation (UGT [1]; 2.5 mM, positive control): 20 percent control |
| O=C(O)C1CC2C=CC1O2 (stereo not shown) [7-oxabicyclo[2.2.1]-hept-5-ene-2-carboxylic acid] | 0.41 ± 0.02 nmol/mg/min | 0.40 ± 0.02 nmol/mg/min | 106 ± 7.47% | 103 ± 1.09% | 3.46 ± 0.04 µmol/mg/min | 101.00 ± 0.64% | 3.26 ± 0.09 µmol/mg/min | 95.53 ± 4.50% | 0.67 ± 0.01 nmol/mg/min | 0.66 ± 0.03 nmol/mg/min | 103 ± 2.77% | 103 ± 3.52% | 2.87 ± 0.07 µmol/mg/min | 102.50 ± 2.98% | 2.75 ± 0.06 µmol/mg/min | 98.20 ± 1.42% | 4.02 ± 0.09 µmol/mg/min | 99.13 ± 1.29% | 3.99 ± 0.09 µmol/mg/min | 98.49 ± 0.83% | CYP3A catalytic activity (CYP3A [6]; 12.5 µM): 0.48 ± 0.06 nmol/mg/min; CYP3A catalytic activity (CYP3A [6]; 25 µM): 0.51 ± 0.04 nmol/mg/min; activity at 30 min, 12.5 µM (CYP3A [6]; 12.5 µM): 107 ± 5.87%; activity at 30 min, 25 µM (CYP3A [6]; 25 µM): 114 ± 3.17% |
| CC12CCC(CC1=O)C2(C)C (stereo not shown) [Camphor, camphor] | 0.40 ± 0.03 nmol/mg/min | 0.41 ± 0.03 nmol/mg/min | 102 ± 2.05% | 104 ± 2.57% | 2.42 ± 0.08 µmol/mg/min | 104.80 ± 1.79% | 2.31 ± 0.09 µmol/mg/min | 100.10 ± 2.45% | 0.68 ± 0.02 nmol/mg/min | 0.68 ± 0.03 nmol/mg/min | 97.1 ± 2.15% | 96.3 ± 3.21% | 2.62 ± 0.09 µmol/mg/min | 102.59 ± 1.43% | 2.72 ± 0.24 µmol/mg/min | 106.26 ± 6.99% | 4.01 ± 0.33 µmol/mg/min | 102.42 ± 1.78% | 3.97 ± 0.33 µmol/mg/min | 101.32 ± 1.34% | CYP3A catalytic activity (CYP3A [6]; 12.5 µM): 0.63 ± 0.03 nmol/mg/min; CYP3A catalytic activity (CYP3A [6]; 25 µM): 0.59 ± 0.04 nmol/mg/min; activity at 30 min, 12.5 µM (CYP3A [6]; 12.5 µM): 101 ± 3.99%; activity at 30 min, 25 µM (CYP3A [6]; 25 µM): 95 ± 1.81% |
| CC1(C)CCCCC1 [1,1-dimethylcyclohexane] | 0.38 ± 0.01 nmol/mg/min | 0.40 ± 0.02 nmol/mg/min | 98 ± 1.28% | 101.8 ± 0.61% | 2.48 ± 0.13 µmol/mg/min | 105.97 ± 2.23% | 2.19 ± 0.09 µmol/mg/min | 93.67 ± 1.67% | 0.73 ± 0.03 nmol/mg/min | 0.79 ± 0.04 nmol/mg/min | 98.93 ± 0.94% | 107 ± 1.13% | 2.59 ± 0.08 µmol/mg/min | 100.53 ± 2.39% | 2.58 ± 0.05 µmol/mg/min | 100.29 ± 3.55% | 4.08 ± 0.18 µmol/mg/min | 100.68 ± 0.60% | 4.03 ± 0.23 µmol/mg/min | 99.32 ± 0.90% | CYP3A catalytic activity (CYP3A [6]; 12.5 µM): 0.61 ± 0.07 nmol/mg/min; CYP3A catalytic activity (CYP3A [6]; 25 µM): 0.61 ± 0.10 nmol/mg/min; activity at 30 min, 12.5 µM (CYP3A [6]; 12.5 µM): 103 ± 7.68%; activity at 30 min, 25 µM (CYP3A [6]; 25 µM): 100 ± 1.66% |
